Reference: patent US6569878B1, “Substituted 4-amino-thiazol-2-yl compounds as cyclin-dependent kinase inhibitors” (Agouron Pharmaceuticals Inc., priority 1997, dated 2003)

Experiments:
CDK2/cyclin A = biological target: T1, CDK2/cyclin A (Homo sapiens, UniProt P24941); experiment: Inhibition of CDK2/cyclin A retinoblastoma kinase activity; type: biochemical; details: read-out: Ki CDK 2/A
T1 construct: made in house; host or cells: CDK2: insect cells (baculovirus); cyclin A: E. coli, then limited proteolysis
How it was run: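 Baculovirus-expressed CDK2 with excess proteolyzed cyclin A (or purified complex), 150 nM or 5 nM, phosphorylating an Rb fragment with 25 μM [32/33P]ATP, pH 7.4, 30° C, 20 min. Filter-captured radioactivity by phosphorimager; apparent Ki from fits to competitive or tight-binding competitive inhibition using measured ATP Km.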

[1] = biological target: T2, human CDK1 (cdc2) and cyclin B (Homo sapiens, UniProt P06493); experiment: Inhibition of CDK1(cdc2)/cyclin B histone H1 kinase activity; type: biochemical; details: read-out: Ki CDK 1/B
T2 construct: purchased New England Biolabs (Beverly Mass.)
T2 sequence (P06493 whole entry): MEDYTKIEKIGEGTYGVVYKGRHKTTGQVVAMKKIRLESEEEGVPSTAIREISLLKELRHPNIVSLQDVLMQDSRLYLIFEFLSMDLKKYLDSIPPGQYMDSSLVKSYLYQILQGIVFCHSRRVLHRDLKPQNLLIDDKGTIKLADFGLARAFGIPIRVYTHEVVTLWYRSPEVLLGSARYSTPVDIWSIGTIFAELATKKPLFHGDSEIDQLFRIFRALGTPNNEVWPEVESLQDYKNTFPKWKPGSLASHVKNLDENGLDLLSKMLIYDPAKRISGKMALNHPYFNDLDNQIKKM
T2 sequence (P14635 whole entry partner): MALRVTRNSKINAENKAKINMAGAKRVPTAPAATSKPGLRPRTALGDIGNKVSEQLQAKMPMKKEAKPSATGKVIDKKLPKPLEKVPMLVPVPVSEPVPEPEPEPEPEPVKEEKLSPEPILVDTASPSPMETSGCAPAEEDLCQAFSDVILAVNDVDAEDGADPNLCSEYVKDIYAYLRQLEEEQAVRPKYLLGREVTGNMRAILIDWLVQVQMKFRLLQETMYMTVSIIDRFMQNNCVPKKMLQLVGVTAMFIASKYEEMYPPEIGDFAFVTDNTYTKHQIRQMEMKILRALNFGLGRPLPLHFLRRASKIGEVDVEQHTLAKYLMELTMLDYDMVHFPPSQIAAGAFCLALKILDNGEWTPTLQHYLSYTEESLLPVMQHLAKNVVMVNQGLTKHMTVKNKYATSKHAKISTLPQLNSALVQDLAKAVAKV
How it was run: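 CDK1/cyclin B (commercial, or CDK1/GST-cyclin B1 from co-infected insect cells) phosphorylated histone H1 with 25 μM [32/33P]ATP at pH 7.4, 30° C for 20 min, 2% DMSO. Product captured on phosphocellulose and read by phosphorimager; apparent Ki from competitive or tight-binding fits, with Km for ATP determined.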

[2] = biological target: T3, complex of human CDK4 and cyclin D3 (Homo sapiens, UniProt P11802); experiment: Inhibition of CDK4/cyclin D retinoblastoma kinase activity (D-type cyclin is D3); type: biochemical; details: superscript a: D-type cyclin is D3; apparent Ki; read-out: Ki CDK 4/D
T3 construct: made in house; host or cells: insect cells, co-infected with baculovirus
T3 sequence (P11802 whole entry): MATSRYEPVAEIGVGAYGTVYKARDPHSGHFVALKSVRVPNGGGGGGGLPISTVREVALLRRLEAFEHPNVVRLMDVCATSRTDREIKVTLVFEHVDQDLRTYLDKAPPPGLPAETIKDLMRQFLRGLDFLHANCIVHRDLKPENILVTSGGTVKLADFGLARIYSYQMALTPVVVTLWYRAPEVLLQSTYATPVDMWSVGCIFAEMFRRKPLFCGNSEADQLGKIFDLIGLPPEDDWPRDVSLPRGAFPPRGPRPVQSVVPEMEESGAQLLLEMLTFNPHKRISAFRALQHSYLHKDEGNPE
T3 sequence (P30281 whole entry partner): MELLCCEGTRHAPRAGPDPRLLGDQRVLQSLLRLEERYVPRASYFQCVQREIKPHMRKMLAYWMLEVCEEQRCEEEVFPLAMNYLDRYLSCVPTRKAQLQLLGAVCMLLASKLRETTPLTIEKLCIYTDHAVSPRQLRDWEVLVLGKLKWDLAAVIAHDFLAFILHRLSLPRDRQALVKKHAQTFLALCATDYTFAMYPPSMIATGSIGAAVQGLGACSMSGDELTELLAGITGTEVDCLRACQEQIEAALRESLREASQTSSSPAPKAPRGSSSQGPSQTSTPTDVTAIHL
How it was run: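 Apparent Ki derived by fitting background-corrected activity to competitive (or, for tight binders, competitive tight-binding) equations with measured ATP Km. Rb phosphorylation by radiolabelled ATP was measured at 30°C, 20 min standard or 60 min at 5 nM complex for tight binders, via nitrocellulose capture and phosphorimager.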

MDA-MB-468 = experiment: Inhibition of cell growth, MTT assay, MDA-MB-468; type: cell-based; details: Homo sapiens; MDA-MB-468, MTT assay
Protocol: (§1) The water-insoluble purple formazan product was then detected spectrophotometrically. […] Plates were incubated for four hours before addition of inhibitor compounds. Different concentrations of inhibitor compounds were added in 0.5% (v/v) dimethylsulfoxide (15 μL/well), and cells were incubated at 37° C. (5% CO2) for four to six days (depending on cell type). At the end of the incubation, MTT was added to a final concentration of 0.2 mg/mL, and cells were incubated for 4 hours more at 37° C. After centrifugation of the plates and removal of medium, the absorbance of the formazan (solubilized in dimethylsulfoxide) was measured at 540 nm.

HCT116 = experiment: Inhibition of cell growth, MTT assay, HCT116; type: cell-based, human; details: for IC50 / IC90: Homo sapiens, HCT-116
How it was run: (§2)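 Cells rested 4 h after plating, then exposed to graded compound concentrations in 0.5% (v/v) DMSO for four to six days (cell-type dependent) at 37° C, 5% CO2. Viability was read by MTT (0.2 mg/mL final, 4 h at 37° C), with DMSO-solubilized formazan measured at 540 nm.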

MCF-7 = experiment: Inhibition of cell growth, MTT assay, MCF-7; type: cell-based; details: MCF-7, MTT assay; for IC50 / IC90: Homo sapiens, MCF7
Protocol: as §1

U2-OS = experiment: Inhibition of cell growth, MTT assay, U2-OS; type: cell-based; details: for IC50 / IC90: Homo sapiens, U2OS
How it was run: as §2

Saos-2 = experiment: Inhibition of cell growth, MTT assay, Saos-2; type: cell-based; details: Homo sapiens; Saos-2, MTT assay
How it was run: as §2

[3] = biological target: T4, complex of human CDK4 and genetically truncated (1-264) cyclin D3 (Homo sapiens, UniProt P11802); experiment: Inhibition of CDK4/cyclin D retinoblastoma kinase activity (D-type cyclin is truncated D3); type: biochemical; details: superscript c: D-type cyclin is truncated D3; read-out: Ki CDK 4/D
T4 construct: made in house; host or cells: insect cells, co-infected with baculovirus
T4 sequence (P11802 whole entry, the tested form may be a part): as the sequence (P11802 whole entry) above
T4 sequence (P30281 1-264 partner limits assumed): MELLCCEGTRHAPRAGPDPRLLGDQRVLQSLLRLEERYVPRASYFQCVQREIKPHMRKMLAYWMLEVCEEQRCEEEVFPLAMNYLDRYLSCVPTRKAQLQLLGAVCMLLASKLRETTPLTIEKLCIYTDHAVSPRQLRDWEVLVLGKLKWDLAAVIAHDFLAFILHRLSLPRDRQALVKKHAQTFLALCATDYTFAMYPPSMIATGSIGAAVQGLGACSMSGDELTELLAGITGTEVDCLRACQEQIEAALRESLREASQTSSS
Protocol: Cyclin-dependent kinase activity was measured by quantifying the enzyme-catalyzed, time-dependent incorporation of radioactive phosphate from [^32P]ATP or [^33P]ATP into a protein substrate. Unless noted otherwise, assays were performed in 96-well plates in a total volume of 50 μL, in the presence of 10 mM HEPES (N-[2-hydroxyethyl]piperazine-N′-[2-ethanesulfonic acid]) (pH 7.4), 10 mM MgCl2, 25 μM adenosine triphosphate (ATP), 1 mg/mL ovalbumin, 5 μg/mL leupeptin, 1 mM dithiothreitol, 10 mM β-glycerophosphate, 0.1 mM sodium vanadate, 1 mM sodium fluoride, 2.5 mM ethylene glycol-bis(β-aminoethyl ether)-N,N,N′N′-tetraacetic acid (EGTA), 2% (v/v) dimethylsulfoxide, and 0.03-0.4 μCi [^32/33P]ATP per reaction. Reactions were initiated with enzyme, incubated at 30° C., and terminated after 20 minutes by the addition of ethylenediaminetetraacetic acid (EDTA) to 250 mM. The phosphorylated substrate was then captured on a nitrocellulose or phosphocellulose membrane using a 96-well filtration manifold, and unincorporated radioactivity was removed by repeated washing with 0.85% phosphoric acid. Radioactivity was quantified by exposing the dried membranes to a phosphorimager.
Apparent Ki values were measured by assaying enzyme activity in the presence of different inhibitor compound concentrations and subtracting the background radioactivity measured in the absence of enzyme. The kinetic parameters (kcat, Km for ATP) were measured for each enzyme under the usual assay conditions by determining the dependence of initial rates on ATP concentration. Inhibition data were fit to an equation for competitive inhibition using Kaleidagraph (Synergy Software), or were fit to an equation for competitive tight-binding inhibition using the software KineTic (BioKin, Ltd.).
A complex of human CDK4 and cyclin D3, or a complex of cyclin D1 and a fusion protein of human CDK4 and gluathione-S-transferase (GST-CDK4), or a complex of human CDK4 and genetically truncated (1-264) cyclin D3, was purified using traditional biochemical chromatographic techniques from insect cells that had been co-infected with the corresponding baculovirus expression vectors (see e.g., Meijer and Kim, “Chemical Inhibitors of Cyclin-Dependent Kinases,” Methods in Enzymol,. vol. 283 (1997), pp. 113-128.). The enzyme complex (5 or 50 nM) was assayed with 0.3-0.5 μg of purified recombinant retinoblastoma protein fragment (Rb) as a substrate. The engineered Rb fragment (residues 386-928 of the native retinoblastoma protein; 62.3 kDa) contains the majority of the phosphorylation sites found in the native 106-kDa protein, as well as a tag of six histidine residues for ease of purification. Phosphorylated Rb substrate was captured by microfiltration on a nitrocellulose membrane and quantified using a phosphorimager as described above. For measurement of tight-binding inhibitors, the enzyme complex concentration was lowered to 5 nM, and the assay duration was extended to 60 minutes, during which the time-dependence of product formation was linear.

SW-480 = experiment: Inhibition of cell growth, MTT assay, SW-480; type: cell-based; details: Homo sapiens, SW480; SW-480, MTT assay
Protocol: Inhibition of cell growth was measured using the tetrazolium salt assay, which is based on the ability of viable cells to reduce 3-(4,5-dimethylthiazol-2-yl)-2,5-[2H]-diphenyltetrazolium bromide (MTT) to formazan (Mossman, Journal of Immunological Methods, vol. 65 (1983), pp. 55-58). The water-insoluble purple formazan product was then detected spectrophotometrically. Various cell lines (HCT-116, Saos-2, U2-OS, SW480, COLO-205, RXF-393, M14, MDA-MB-468, and MCF7) were grown in 96-well plates. Cells were plated in the appropriate medium at a volume of 135 μl/well in either McCoy's 5A Medium (for Saos-2, U2-OS, SW480, and HCT-116 cells), RPMI (for COLO-205, RXF-393, M14 cells), or Minimum Essential Medium Eagle (for MDA-MB-468 and MCF7 cells). Plates were incubated for four hours before addition of inhibitor compounds. Different concentrations of inhibitor compounds were added in 0.5% (v/v) dimethylsulfoxide (15 μL/well), and cells were incubated at 37° C. (5% CO2) for four to six days (depending on cell type). At the end of the incubation, MTT was added to a final concentration of 0.2 mg/mL, and cells were incubated for 4 hours more at 37° C. After centrifugation of the plates and removal of medium, the absorbance of the formazan (solubilized in dimethylsulfoxide) was measured at 540 nm. […] All results were compared to control cells treated only with 0.5% (v/v) dimethylsulfoxide.

Ki (CDK2/cyclin A) [nM] | Ki [1] [nM] | Ki [2] [nM] | IC50 (MDA-MB-468) [nM] | IC90 (MDA-MB-468) [nM] | IC50 (HCT116) [nM] | IC90 (HCT116) [nM] | IC50 (MCF-7) [nM] | IC90 (MCF-7) [nM] | IC50 (U2-OS) [nM] | IC90 (U2-OS) [nM] | Ki [3] [nM] | IC50 (SW-480) [nM] | IC90 (SW-480) [nM] | SMILES | IC50 (Saos-2) [nM] | IC90 (Saos-2) [nM] | % inhibition of growth in parentheses after >25 (HCT116; concentration not given) [%] | % inhibition of growth in parentheses after >25 (MCF-7; concentration not given) | % inhibition of growth in parentheses after >25 (U2-OS; concentration not given) [%]
260 | 104 | 14 | 440 | 750 | 640 | 1700 | 400 | 1700 | 700 | 1600 |  |  |  | CN(C)CCN(C)c1ccc(Nc2nc(N)c(C(=O)c3c(F)cccc3F)s2)cc1 [C(110), (4-Amino-2-{4-[(2-dimethylamino-ethyl)-methyl-amino]-phenylamino}-thiazol-5-yl)-(2,6-difluoro-phenyl)-methanone] | 890 | 1800 |  |  | 
390 |  |  |  |  | 600 | 1400 |  |  |  |  | 24 |  |  | CN(C)CCCN(C)c1ccc(Nc2nc(N)c(C(=O)c3c(F)cccc3F)s2)cc1 [C(126), (4-Amino-2-{4-[(3-dimethylamino-propyl)-methyl-amino]-phenylamino}-thiazol-5-yl)-(2,6-difluoro-phenyl)-methanone] |  |  |  |  | 
440 |  |  |  |  |  |  |  |  |  |  | 30 |  |  | CN1CCCN(c2ccc(Nc3nc(N)c(C(=O)c4c(F)cccc4F)s3)cc2)CC1 [C(128), {4-Amino-2-[4-(1-methyl-[1,4]-diazepan-4-yl)-phenylamino]-thiazol-5-yl}-(2,6-difluoro-phenyl)-methanone] |  |  |  |  | 
 | 193 |  |  |  | > 12500 |  |  |  |  |  | 22 |  |  | NC(=O)C1CCN(c2ccc(Nc3nc(N)c(C(=O)c4c(F)cccc4F)s3)cc2)CC1 [L, {4-Amino-2-[4-(4-carboxamido-piperidin-1-yl)-phenylamino]-thiazol-5-yl}-(2,6-difluoro-phenyl)-methanone] |  |  |  |  | 
953 |  |  |  |  | 2500 | 5300 |  |  | 6000 | 11000 | 10.6 |  |  | Nc1nc(Nc2ccc(N3CCN(CC4CC4)CC3)cc2)sc1C(=O)c1c(F)cccc1F [C(121), {4-Amino-2-[4-(4-cyclopropylmethyl-piperazin-1-yl)-phenylamino]-thiazol-5-yl}-(2,6-difluoro-phenyl)-methanone] | 5100 | 12000 |  |  | 
290 |  |  |  |  | > 25000 |  |  |  |  |  | 46 |  |  | Nc1nc(Nc2ccc(N3CCC(C(=O)O)CC3)cc2)sc1C(=O)c1c(F)cccc1F [M, 1-{4-[4-Amino-5-(2,6-difluoro-benzoyl)-thiazol-2-ylamino]-phenyl}-piperidine-4-carboxylic Acid] |  |  |  |  | 
270 |  |  |  |  |  |  |  |  |  |  | 64 |  |  | CN(CCC#N)c1ccc(Nc2nc(N)c(C(=O)c3c(F)cccc3F)s2)cc1 [C(129), 3-({4-[4-Amino-5-(2,6-difluorobenzoyl)-thiazol-2-yl-amino]-phenyl}-methylamino)-propionitrile] |  |  |  |  | 
165 |  |  |  |  | 1700 | 4800 |  |  | 1500 | 4700 | 35 |  |  | Nc1nc(Nc2ccc(-c3ccncc3)cc2)sc1C(=O)c1c(F)cccc1F [C(122), [4-Amino-2-(4-pyridin-4-yl-phenylamino)-thiazol-5-yl]-(2,6-difluoro-phenyl)-methanone] | 3700 | 10000 |  |  | 
215 |  |  |  |  |  |  |  |  |  |  | 26 |  |  | Nc1nc(Nc2ccc(N3CCN(c4ccncc4)CC3)cc2)sc1C(=O)c1c(F)cccc1F [C(127)] |  |  |  |  | 
364 |  |  |  |  | 3500 | 6200 |  |  | 3500 | 6000 | 43 |  |  | Nc1nc(Nc2ccc(N3CCN(c4ccccn4)CC3)cc2)sc1C(=O)c1c(F)cccc1F [K, {4-Amino-2-[4-(4-pyridin-2-yl-piperazin-1-yl)-phenylamino]-thiazol-5-yl}-(2,6-difluoro-phenyl)-methanone] | 6000 | 13000 |  |  | 
318 | 57 | 36 | 720 | 1700 | 950 | 1800 | 650 | 5500 | 900 | 1600 |  | 700 | 7500 | COc1ccc(Nc2nc(N)c(C(=O)c3ccccc3[N+](=O)[O-])s2)cc1 [A(10), [4-Amino-2-(4-methoxy-phenylamino)-thiazol-5-yl]-(2-nitro-phenyl)-methanone] | 1300 | 4600 |  |  | 
389 | 97 | 27 | 6800 | 15000 | 18000 | > 25000 | 15000 | > 25000 | 10000 | > 25000 |  | 8300 | 20000 | Cc1c(C(=O)c2sc(Nc3ccc4nc[nH]c4c3)nc2N)sc2ccccc12 [C(8), [4-Amino-2-(1H-benzoimidazol-6-ylamino)-thiazol-5-yl]-(3-methyl-benzo[b]thiophen-2-yl)-methanone] | 6200 | 18000 | 88 | (82%) | 84
